Results taken from patent publication US8592457B2, “Isonicotinamide orexin receptor antagonists” (Merck Sharp & Dohme Corp., priority 2008, dated 2013).

molecular target: OX2R (Homo sapiens (Human), UniProt O43614); experiment: radioligand binding assay, OX2 receptor; conditions: membranes prepared from CHO cells expressing the OX2 receptor
Procedure: The utility of the compounds in accordance with the present invention as orexin receptor OX1R and/or OX2R antagonists may be readily determined without undue experimentation by methodology well known in the art, including the “FLIPR Ca^2+ Flux Assay” (Okumura et al., Biochem. Biophys. Res. Comm. 280:976-981, 2001). In a typical experiment the OX1 and OX2 receptor antagonistic activity of the compounds of the present invention was determined in accordance with the following experimental method. For intracellular calcium measurements, Chinese hamster ovary (CHO) cells expressing the rat orexin-1 receptor or the human orexin-2 receptor, are grown in Iscove's modified DMEM containing 2 mM L-glutamine, […], 1% hypoxanthine-thymidine supplement, 100 U/ml penicillin, 100 ug/ml streptomycin and 10% heat-inactivated fetal calf serum (FCS). The cells are seeded at 20,000 cells/well into Becton-Dickinson black 384-well clear bottom sterile plates coated with poly-D-lysine. All reagents were from GIBCO-Invitrogen Corp. The seeded plates are incubated overnight at 37° C. and 5% CO2. Ala-6,12 human orexin-A as the agonist is prepared as a 1 mM stock solution in 1% bovine serum albumin (BSA) and diluted in assay buffer (HBSS containing 20 mM HEPES, 0.1% BSA and 2.5 mM probenecid, pH7.4) for use in the assay at a final concentration of […]. Test compounds are prepared as 10 mM stock solution in DMSO, then diluted in 384-well plates, first in DMSO, then assay buffer. On the day of the assay, cells are washed 3 times with 100 ul assay buffer and then incubated for 60 min (37° C., 5% CO2) in 60 ul assay buffer containing 1 uM Fluo-4AM ester, 0.02% pluronic acid, and 1% BSA. The dye loading solution is then aspirated and cells are washed 3 times with 100 ul assay buffer. 30 ul of that same buffer is left in each well. Within the Fluorescent Imaging Plate Reader (FLIPR, Molecular Devices), test compounds are added to the plate in a volume of 25 ul, incubated for 5 min and finally 25 ul of agonist is added. Fluorescence is measured for each well at 1 second intervals for 5 minutes and the height of each fluorescence peak is compared to the height of the fluorescence peak induced by 70 pM Ala-6,12 orexin-A with buffer in place of antagonist. […] Alternatively, compound potency can be assessed by a radioligand binding assay (described in Bergman et. al. Bioorg. Med. Chem. Lett. 2008, 18, 1425-1430) in which the inhibition constant (Ki) is determined in membranes prepared from CHO cells expressing either the OX1 or OX2 receptor. The intrinsic orexin receptor antagonist activity of a compound which may be used in the present invention may be determined by these assays.

OX2R, sequence (O43614 whole entry): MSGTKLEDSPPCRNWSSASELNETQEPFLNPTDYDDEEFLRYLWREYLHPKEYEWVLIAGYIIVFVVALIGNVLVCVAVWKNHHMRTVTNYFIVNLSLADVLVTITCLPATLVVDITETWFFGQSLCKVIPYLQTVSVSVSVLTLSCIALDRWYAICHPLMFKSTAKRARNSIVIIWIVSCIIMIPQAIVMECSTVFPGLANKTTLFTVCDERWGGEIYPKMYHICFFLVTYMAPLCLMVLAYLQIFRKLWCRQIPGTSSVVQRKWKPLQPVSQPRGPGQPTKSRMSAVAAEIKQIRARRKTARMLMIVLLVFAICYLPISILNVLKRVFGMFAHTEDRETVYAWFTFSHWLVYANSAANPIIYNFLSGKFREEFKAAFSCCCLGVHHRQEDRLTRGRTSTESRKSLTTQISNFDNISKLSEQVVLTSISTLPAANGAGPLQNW

Ki | Structure (SMILES)
4.5 nM | COc1ncc(CNC(=O)c2cc(-c3cncc(C)c3)ncc2-c2cccc(F)c2)nc1OC [1-13]
0.91 nM | COc1ccc(CNC(=O)c2cc(-c3cncc(C)c3)ncc2-c2cccc(F)c2)nc1OC [1-16]
0.95 nM | COc1ccc(CNC(=O)c2cc(-c3cncc(C)c3)ncc2-c2nccs2)nc1OC [7-5, N-[(5,6-Dimethoxypyridin-2-yl)methyl]-5′-methyl-5-(1,3-thiazol-2-yl)-2,3′-bipyridine-4-carboxamide]
0.97 nM | COc1nc(CNC(=O)c2cc(-c3cncc(C)c3)ncc2-c2nccs2)ccc1C1CC1 [7-7, N-[(5-cyclopropyl-6-methoxypyridin-2-yl)methyl]-5′-methyl-5-(1,3-thiazol-2-yl)-2,3′-bipyridine-4-carboxamide]
